# Assay results: US20090270373A1, “TREATMENT OF DOWN SYNDROM WITH BENZODIAZEPINE RECEPTOR ANTAGONISTS” (Cypress Biosciences, Inc., priority 2008, published 2009)
# How the values were obtained:
# WT and Ts65Dn mice = assay: Open-field locomotor assay (LMA), 30 min session; type: in vivo, mouse
# Experimental: (§1) Following baseline determinations and group assignments, WT and Ts65Dn mice received intraperitoneal (i.p.) injections once/day (08:00) for the two-week duration of the drug treatment regimen (FIG. 1). Drugs were dissolved in physiological saline. Two drops of Tween 80 were used to facilitate solution formation for flumazenil. Picrotoxin was initially made up at 50× concentration in 20% ethanol and then diluted down to a […] solution with 0.4% ETOH in saline. Doses of drugs were based on previous behavioral research in mice (1 mg/kg for PTX and 10 mg/kg for flumazenil). Injections were given in a volume of 10 ml/kg. A vehicle control was run along side the treatment groups (0.4% ETOH in saline).
# (§2) FIG. 1 graphically depicts the protocol. After habituation to the animal facility, mice were tested for baseline behaviors in the open-field locomotor assay (LMA)(30 min session) and the novel object recognition assay. Primary experimental groups were divided by genotype (Ts65Dn mice and wild-type control littermates). These two groups were further divided into drug treatments (vehicle, PTX and flumazenil) with a targeted n-size of 8 mice/group (24 WT and 24 Ts65Dn mice total). The group assignments were made in a semi-random process due to constraints in animal availability (staggered shipping) and choice of initial treatment groups (e-mail documentation between Bilsky laboratory and Cypress Bioscience on file). Daily morning injections began on Day 1 and went through the morning of Day 14. On Days 7/8 and 14/15 (13:00) mice were tested in the behavioral assay. Mice were kept for an additional two weeks and re-tested on Days 21/22 and 28/29 to assess the duration of the drug treatment effect.
# General levels of arousal, locomotor activity and anxiety were assessed using an automated open-field activity monitoring system (Coulbourn Instruments with TruScan software). The open field test that were run were fully automated assays that quantified many different aspects and patterns of movement, including total distance traveled, time spent moving, rearing, and various stereotypic patterns of activity. The software calculates the time spent in the middle portions of the open field versus the outer zones alongside the outside walls. These variables can be used as one measure of general anxiety levels.
# Mice were placed into an open field (26 cm×26 cm) in a brightly lit room. Two sensor rings (x-y plane and a vertical z plane) generate an array of infrared beams that surround the chamber. The pattern of beam breaks was recorded and the data fed into a personal computer. The TruScan software interpreted the beam breaks to calculate the movement variables and patterns of activity, with a temporal resolution of 100 msec. A 30 minutes session was used for assessment of the mice on Day 0 (Baseline) and then on Days 1, 7, 14, 21 and 28. Data were exported into an Excel spreadsheet, graphed and analyzed using parametric and non-parametric statistics.
# WT mice = assay: Novel object recognition assay (Discrimination Index) in WT mice; type: in vivo, mouse
# Experimental: as §1, §2
# (§3) The novel object recognition task is based on the innate tendency of rodents to differentially explore novel objects over familiar ones. The task is well validated for evaluating rodent memory and the effects of drug treatments on learning/memory performance.
# (§4) Mice were trained and tested once per week, each experimental session separated by a one-week interval. Mice were submitted to daily handling sessions, and given an opportunity to habituate to an open field arena (48 cm×48 cm wide×25 cm), where they were exposed to two different objects (complex protocol), during a 5-minute training session. Objects were made from various non-porous materials that differ in shape and color. Mice were unable to climb onto the objects and the objects were generally consistent in height and volume, and were roughly symmetrical on a horizontal plane. Objects were positioned in two corners of the apparatus. To control for odor cues, the open field arena and the objects are thoroughly cleaned with 90% ethanol, dried, and ventilated for a few minutes between mice.
# (§5) A 5-minute testing session was conducted 24 h after training. Here, the mice were presented with the object they had explored the previous day, and a new item (the objects being alternatively positioned in one corner or another in a balanced fashion within a given week, and from one week to another). […]
# Ts65Dn mice [1] = assay: Novel object recognition assay (Discrimination Index) in Ts65Dn mice, model of Down syndrome; type: in vivo, mouse
# Experimental: as §1, §2, §3, §4, §5
# Ts65Dn mice [2] = settings: cited from earlier work; for improvement in cognition: 4 week crossover study
# Ts65Dn mice [3] = type: in vivo, mouse; settings: 4-week crossover, flumazenil or bretazenil 1.0 mg/kg i.p. for 2 weeks, bilobalide 5.0 mg/kg i.p. throughout
# Experimental: (§6) A 4-week longitudinal crossover study is carried out following the method outlined by Fernandez et al., supra. Wild-type and Ts65Dn mice (3-4 months of age) are randomly assigned to groups receiving daily i.p. injections of saline or flumazenil (1.0 mg/kg), and are submitted to four weekly repetitions of object recognition testing, in which the animals are serially presented with four different object sets. At the 2-week midpoint of the experimental period, wild-type and Ts65Dn mice that have been receiving saline are randomly segregated into groups that either continue to receive daily saline injections or begin to receive daily injections of flumazenil. Conversely, wild-type and Ts65Dn mice that have been chronically administered flumazenil in the first 2 weeks of testing are switched onto a saline regimen. Alongside saline and flumazenil, bilobalide (i.p. 5.0 mg/kg) may be evaluated as a positive control. Bilobalide is a picrotoxin-like compound that may safely be administered for the whole 4-week experiment.
# (§7) Flumazenil may also be tested for its effects on declarative memory in the novel object recognition test and in a modified spontaneous alternation task. Wild-type and Ts65Dn mice may be administered flumazenil (3 mg/kg in milk via voluntary oral feeding or 1 mg/kg i.p.). The wild-type and Ts65Dn mice are administered from 5 to 30 doses of milk or milk-flumazenil (or saline or flumazenil solution i.p.). The mice are then subjected to two repetitions of novel object recognition testing or three daily T-maze sessions at the tail end of the treatment regimen. […] Comparison of treated and untreated Ts65Dn mice will provide controls for any possible arm bias in the spontaneous alternation task.
# as §6, with “bretazenil” for “flumazenil”, “bretazenil.” for “flumazenil.”, “bretazenil,” for “flumazenil,”
# as §7, with “Bretazenil may” for “Flumazenil may”, “administered bretazenil” for “administered flumazenil”
# Ts65Dn mice [4] = assay: Long-term potentiation (LTP) in the dentate gyrus of Ts65Dn mice (paper Examples 1 and 2); type: in vivo, mouse; settings: about 1 month after cessation of drug treatment
# Description: Since the ability of animals to learn and remember is thought to be encoded at the synaptic level, and involves the ability of synapses to undergo long-term changes in synapse strength, long-term potentiation (LTP) in the dentate gyrus may be evaluated.
# Down Syndrome patients = assay: Cognition in Down Syndrome patients, double-blind cross-over (Example 3); type: in vivo, human; settings: 5 and 20 mg
# Experimental: Fifteen adult or adolescent Down Syndrome patients experiencing at least some level of cognitive impairment participate in a double-blind, cross-over comparison of […]. The drugs administered are flumazenil (5 and 20 mg), bretazenil (5 and 20 mg) or placebo. Subjects are randomly assigned to treatments according to a Williams Square design (Higgitt, supra (citing Williams, “Experimental designs balanced for the estimation of residual effects of treatments, Aust. J. Sci. Res. 2:149-168 (1949))). Each subject receives a different sequence of four treatments balanced for carry-over effects and separated by at least 1 week of wash-out period. […]
# Psychophysiological indices to be measured include: EEG, skin conductance, finger tremor, critical flicker fusion threshold, blood pressure and pulse rate, key tapping rate, and reaction time. […]
# EEG and evoked responses: These are recorded during the same EEG recording procedure. […] In addition, the four values are summed and each is expressed as a percentage of the total.
# The averaged evoked responses are obtained from the 500 ms epoch of the EEG following each of the 32 click stimuli. […] The latency at each peak and peak-to-peak amplitudes are computed and recorded automatically. […]
# Skin conductance, blood pressure and pulse rate can be measured by the method of Higgitt et al., supra. […]
# [5] = Week 1 of drug therapy, PTX 1 mg/kg, flumazenil 10 mg/kg i.p.
compound,measurement,setting,value
picrotoxin [PTX],LMA center distance traveled,WT and Ts65Dn mice; 7 and 14 days post dosing,mild rebound effect
same,LMA margin vs. center time,WT and Ts65Dn mice; Day 1,trend for decreased center time
same,LMA margin vs. center time,WT and Ts65Dn mice; Day 7,small decrease in time spent in the center zone
same,LMA margin vs. center time,WT and Ts65Dn mice; Day 21 (washout period),increased time spent in center
same,LMA margin vs. center time,WT and Ts65Dn mice; Day 28 (washout period),trend for increased time spent in the center zone
same,LMA vertical rearing,"WT and Ts65Dn mice; WT and Ts65Dn mice, PTX during drug administration phases, flumazenil over the 4 week testing regimen",dropping significantly
same,LMA marginal distance traveled,"WT and Ts65Dn mice; WT and Ts65Dn mice, across sessions, PTX 1 mg/kg, flumazenil 10 mg/kg i.p.",decreased distance traveled
same,LMA total distance traveled,"WT and Ts65Dn mice; dosing phase (Days 1, 7 and 14), PTX 1 mg/kg i.p.",modest decrease
same,LMA center distance traveled,"WT and Ts65Dn mice; drug administration phase (Days 1, 7 and 14), PTX 1 mg/kg, flumazenil 10 mg/kg i.p.",decreased levels of activity
same,time after last dosing until LMA effects were gone,"WT and Ts65Dn mice; total distance traveled, PTX 1 mg/kg i.p.",≤ 7 days
same,Discrimination Index (DI),WT mice; [5],~30
same,Discrimination Index (DI),"WT mice; Week 2 of drug therapy, versus vehicle",no differences
same,Discrimination Index (DI),WT mice; Week 4 (2 weeks post dosing),positive DI
same,Discrimination Index (DI),Ts65Dn mice [1]; [5],positive effects
same,Discrimination Index (DI),Ts65Dn mice [1]; Week 2 of drug therapy,positive effects
same,improvement in cognition,Ts65Dn mice [2],statistically significant improvement
same,rescue of cognition,"Ts65Dn mice [2]; Ts65Dn mice, two-week dosing regimen of 1.0 mg/kg i.p.",clear benefit
CC(C)(C)[C@]1(O)CC2OC(=O)CC23C(=O)OC2OC(=O)[C@H](O)C231 (stereo partly shown) [bilobalide],object recognition performance,Ts65Dn mice [3],normalized object recognition performance
same,improvement in cognition,Ts65Dn mice [2],statistically significant improvement
"CC(C)(C)OC(=O)c1ncn2c1[C@@H]1CCCN1C(=O)c1c(Br)cccc1-2 [bretazenil, tert-butyl-(S)-8-bromo-11,12,13,13a-tetrahydro-9-oxo-9H-imidazo[1,5-a]pyrrolo[2,1-c][1,4]benzodiazepine-1-carboxylate]",LTP in the dentate gyrus,Ts65Dn mice [4],Normalized LTP
same,object recognition performance,Ts65Dn mice [3],normalized object recognition performance
same,indicators of cognition as compared to placebo,Down Syndrome patients,improvement in one or more indicators of cognition
